Assay results taken from US6468476B1, “Methods for using-co-regulated genesets to enhance detection and classification of gene expression patterns” (Rosetta Inpharmatics, Inc., priority 1998, dated 2002).

Tested on: genes regulated by the Gcn4 transcription factor
Assay: Transcript response (DNA microarray) to a titration series of FK506, genes of the Gcn4 geneset
Assay type: cell-based, Saccharomyces cerevisiae
Method: Yeast (Saccharomyces cerevisiae, Strain YPH499, see, Sikorski and Hieter, 1989, A system of shuttle vectors and yeast host strains designated for efficient manipulation of DNA in Saccharomyces cerevisiae, Genetics 122:19-27) cells were grown in YAPD at 30° C. to an OD600 of 1.0 (±0.2), and total RNA prepared by breaking cells in phenol/chloroform and 0.1% SDS by standard procedures (Ausubel et al., 1995, Current Protocols in Molecular Biology, Greene Publishing and Wiley-Interscience, New York, Ch. 13). Poly(A)^+ RNA was selected by affinity chromatography on oligo-dT cellulose (New England Biolabs) essentially as described in Sambrook et al. (Molecular Cloning—A Laboratory Manual (2nd Ed.), Vol. 1, Cold Spring Harbor Laboratory, Cold Spring Harbor, N.Y., 1989). First strand cDNA synthesis was carried out with 2 μg poly(A)^+ RNA and SuperScript™ II reverse transcriptase (Gibco-BRL) according to the manufacturer's instructions with the following modifications. Deoxyribonucleotides were present at the following concentrations: dA, dG, and dC at 500 μM each, dT at 100 μM and either Cy3-dUTP or Cy5-dUTP (Amersham) at 100 μM. cDNA synthesis reactions were carried out at 42-44° C. for 90 minutes, after which RNA was degraded by the addition of 2 units of RNAse H, and the cDNA products were purified by two successive rounds of centrifugation dialysis using MICROCON-30 microconcentrators (Amicon) according to the manufacturer's recommendations.
Double-stranded DNA polynucleotides corresponding in sequence to each ORF in the S. cerevisiae genome encoding a polypeptide greater than 99 amino acids (based on the published yeast genomic sequence, e.g., Goffeau et al., 1996, Science 274:546-567) are made by polymerase chain reaction (PCR) amplification of yeast genomic DNA. Two PCR primers are chosen internal to each of the ORFs according to two criteria: (i) the amplified fragments are 300-800 bp and (ii) none of the fragments have a section of more than 10 consecutive nucleotides of sequence in common. Computer programs are used to aid in the design of the PCR primers. Amplification is carried out in 96 well microtitre plates. The resulting DNA fragments are printed onto glass microscope slides using the method of Shalon et al., 1996, Genome Research 6:639-645.
Fluorescently-labeled cDNAs (2-6 μg) are resuspended in 4×SSC plus 1 μg/μl tRNA as carrier and filtered using […] filters (Millipore, Bedford, Mass.). SDS is added to 0.3%, prior to heating to 100° C. for 2 minutes. Probes are cooled and immediately hybridized to the microarrays produced as described in Example 6.2, for 4 hours at 65° C. Non-hybridized probe is removed by washing in 1×SSC plus 0.1% SDS at ambient temperature for 1-2 minutes. Microarrays are scanned with a fluorescence laser-scanning device as previously described (Schena et al., 1995, Science 270:467-470; Schena et al., 1995, Proc. Natl. Acad. Sci. USA 93:[…]) and the results (including the positions of perturbations) are recorded.
Geneset number 3 in the clustering analysis result of FIG. 6 involves genes regulated by the Gcn4 transcription factor. This was verified via the literature and via multiple sequence alignment analysis of the regulatory regions 5′ to the individual genes (Stormo and Hartzell, 1989, Identifying protein binding sites from unaligned DNA fragments, Proc Natl Acad Sci 86:1183-1187; Hertz and Stormo, 1995, Identification of consensus patterns in unaligned DNA and protein sequences: a large-deviation statistical basis for penalizing gaps, Proc of 3rd Intl Conf on Bioinformatics and Genome Research, Lim and Cantor, eds., World Scientific Publishing Co., Ltd. Singapore, pp. 201-216). […] These 20 were used to define a geneset. Response profiles to a titration series of the drug FK506, which is known to hit this pathway at higher concentrations, were projected onto this geneset. […]

C=CC[C@@H]1/C=C(\C)C[C@H](C)C[C@H](OC)[C@H]2O[C@@](O)(C(=O)C(=O)N3CCCC[C@H]3C(=O)O[C@H](/C(C)=C/[C@@H]3CC[C@@H](O)[C@H](OC)C3)[C@H](C)[C@@H](O)CC1=O)[C@H](C)C[C@@H]2OC [FK506]
Geneset Average response (projected response of the 20-gene Gcn4 geneset) (FK506 7.5 μg/ml): 7.8209 standard deviations of Log10(Expression Ratio) | Response of gene ARG1 (FK506 7.5 μg/ml): 4.2215 standard deviations of Log10(Expression Ratio) | Response of gene ARG4 (FK506 7.5 μg/ml): 3.2973 standard deviations of Log10(Expression Ratio) | Response of gene ARG5,6 (FK506 7.5 μg/ml): 2.7433 standard deviations of Log10(Expression Ratio) | Response of gene ARO3 (FK506 7.5 μg/ml): 0.6059 standard deviations of Log10(Expression Ratio) | Response of gene ECM13 (FK506 7.5 μg/ml): 2.5343 standard deviations of Log10(Expression Ratio) | Response of gene HIS3 (FK506 7.5 μg/ml): 1.8024 standard deviations of Log10(Expression Ratio) | Response of gene HIS5 (FK506 7.5 μg/ml): 2.8414 standard deviations of Log10(Expression Ratio) | Response of gene MET16 (FK506 7.5 μg/ml): 0.1621 standard deviations of Log10(Expression Ratio) | Response of gene NCE3 (FK506 7.5 μg/ml): 1.569 standard deviations of Log10(Expression Ratio) | Response of gene PCL5 (FK506 7.5 μg/ml): 2.2898 standard deviations of Log10(Expression Ratio) | Response of gene SNO1 (FK506 7.5 μg/ml): 2.538 standard deviations of Log10(Expression Ratio) | Response of gene SNZ1 (FK506 7.5 μg/ml): 2.538 standard deviations of Log10(Expression Ratio) | Response of gene SSU1 (FK506 7.5 μg/ml): 0.5059 standard deviations of Log10(Expression Ratio) | Response of gene YBR047W (FK506 7.5 μg/ml): 1.1596 standard deviations of Log10(Expression Ratio) | Response of gene YER024W (FK506 7.5 μg/ml): 1.1526 standard deviations of Log10(Expression Ratio) | Response of gene YGL117W (FK506 7.5 μg/ml): 2.699 standard deviations of Log10(Expression Ratio) | Response of gene YGL184C (FK506 7.5 μg/ml): −0.4586 standard deviations of Log10(Expression Ratio) | Response of gene YHR029C (FK506 7.5 μg/ml): 2.3813 standard deviations of Log10(Expression Ratio) | Response of gene YMR195W (FK506 7.5 μg/ml): 0.8879 standard deviations of Log10(Expression Ratio) | Geneset Average response (projected response of the 20-gene Gcn4 geneset) (FK506 16 μg/ml): 19.9913 standard deviations of Log10(Expression Ratio) | Response of gene ARG1 (FK506 16 μg/ml): 4.711 standard deviations of Log10(Expression Ratio) | Response of gene ARG4 (FK506 16 μg/ml): 4.5135 standard deviations of Log10(Expression Ratio) | Response of gene ARG5,6 (FK506 16 μg/ml): 6.0457 standard deviations of Log10(Expression Ratio) | Response of gene ARO3 (FK506 16 μg/ml): 4.0553 standard deviations of Log10(Expression Ratio) | Response of gene CPA2 (FK506 16 μg/ml): 4.1093 standard deviations of Log10(Expression Ratio) | Response of gene ECM13 (FK506 16 μg/ml): 4.8689 standard deviations of Log10(Expression Ratio) | Response of gene HIS3 (FK506 16 μg/ml): 4.6461 standard deviations of Log10(Expression Ratio) | Response of gene HIS5 (FK506 16 μg/ml): 6.0052 standard deviations of Log10(Expression Ratio) | Response of gene MET16 (FK506 16 μg/ml): 3.3857 standard deviations of Log10(Expression Ratio) | Response of gene NCE3 (FK506 16 μg/ml): 5.5819 standard deviations of Log10(Expression Ratio) | Response of gene PCL5 (FK506 16 μg/ml): 5.4688 standard deviations of Log10(Expression Ratio) | Response of gene SNO1 (FK506 16 μg/ml): 5.8877 standard deviations of Log10(Expression Ratio) | Response of gene SNZ1 (FK506 16 μg/ml): 5.8877 standard deviations of Log10(Expression Ratio) | Response of gene SSU1 (FK506 16 μg/ml): 4.6461 standard deviations of Log10(Expression Ratio) | Response of gene YBR047W (FK506 16 μg/ml): 3.3107 standard deviations of Log10(Expression Ratio) | Response of gene YER024W (FK506 16 μg/ml): 4.6342 standard deviations of Log10(Expression Ratio) | Response of gene YGL117W (FK506 16 μg/ml): 4.9827 standard deviations of Log10(Expression Ratio) | Response of gene YGL184C (FK506 16 μg/ml): 2.7166 standard deviations of Log10(Expression Ratio) | Response of gene YHR029C (FK506 16 μg/ml): 5.0446 standard deviations of Log10(Expression Ratio) | Response of gene YMR195W (FK506 16 μg/ml): 4.0983 standard deviations of Log10(Expression Ratio) | Geneset Average response (projected response of the 20-gene Gcn4 geneset) (FK506 50 μg/ml): 21.3315 standard deviations of Log10(Expression Ratio) | Response of gene ARG1 (FK506 50 μg/ml): 5.7996 standard deviations of Log10(Expression Ratio) | Response of gene ARG4 (FK506 50 μg/ml): 5.8858 standard deviations of Log10(Expression Ratio) | Response of gene ARG5,6 (FK506 50 μg/ml): 5.2406 standard deviations of Log10(Expression Ratio) | Response of gene ARO3 (FK506 50 μg/ml): 5.7035 standard deviations of Log10(Expression Ratio) | Response of gene CPA2 (FK506 50 μg/ml): 4.0958 standard deviations of Log10(Expression Ratio) | Response of gene ECM13 (FK506 50 μg/ml): 3.1882 standard deviations of Log10(Expression Ratio) | Response of gene HIS3 (FK506 50 μg/ml): 5.2637 standard deviations of Log10(Expression Ratio) | Response of gene HIS5 (FK506 50 μg/ml): 4.9557 standard deviations of Log10(Expression Ratio) | Response of gene MET16 (FK506 50 μg/ml): 4.855 standard deviations of Log10(Expression Ratio) | Response of gene NCE3 (FK506 50 μg/ml): 3.3928 standard deviations of Log10(Expression Ratio) | Response of gene PCL5 (FK506 50 μg/ml): 5.2339 standard deviations of Log10(Expression Ratio) | Response of gene SNO1 (FK506 50 μg/ml): 5.5665 standard deviations of Log10(Expression Ratio) | Response of gene SNZ1 (FK506 50 μg/ml): 5.5665 standard deviations of Log10(Expression Ratio) | Response of gene SSU1 (FK506 50 μg/ml): 3.5782 standard deviations of Log10(Expression Ratio) | Response of gene YBR047W (FK506 50 μg/ml): 4.248 standard deviations of Log10(Expression Ratio) | Response of gene YER024W (FK506 50 μg/ml): 5.8934 standard deviations of Log10(Expression Ratio) | Response of gene YGL117W (FK506 50 μg/ml): 5.9066 standard deviations of Log10(Expression Ratio) | Response of gene YGL184C (FK506 50 μg/ml): 5.3106 standard deviations of Log10(Expression Ratio) | Response of gene YHR029C (FK506 50 μg/ml): 5.5781 standard deviations of Log10(Expression Ratio) | Response of gene YMR195W (FK506 50 μg/ml): 4.6141 standard deviations of Log10(Expression Ratio)
